Data reported in US11007206B2, “Cyclic boronic acid ester derivatives and therapeutic uses thereof” (Melinta Subsidiary Corp., priority 2012, dated 2021).

Key:
KPC-producing strains = experiment: Time-kill assays of Biapenem with Compound I (Example 4); format: cell-based, Enterobacteriaceae; conditions: KPC-producing strains (Biapenem MICs of 16-32 ug/ml)
Method: The evaluation of Compound I in combination with the carbapenem antibiotic Biapenem against multi-drug resistant strains of Enterobacteriaceae, including those producing serine carbapenemases were also conducted. Antibiotic potentiation activity of Compound I was studied in checkerboard MIC experiments and time-kill assays. The MICs of Biapenem were determined alone or in combination with Compound I added at fixed concentrations between 0.5 and 16 ug/ml) against characterized and engineered isolates producing various beta-lactamases, as well as in geographically diverse panels of multi-drug resistant strains of Enterobacteriaceae (including strains that express the most relevant beta-lactamases).

[1] = Single-dose pharmacokinetics of Compound I, intravenous 30-minute infusion in Sprague-Dawley rats (Example 5); format: in vivo; conditions: Rat; for AUC / Cmax / half-life: Sprague-Dawley, in vivo
Method: Example 5 provides the single-dose pharmacokinetic studies of Compound I inpreclinical species, including intraperitoneal administration to Swiss-Webster mice and intravaneous administration to Sprague-Dawley rats, Beagle dogs, and Cynomologus monkeys.
Intravaneous doses of Compound I were administered as 30-minute infusions. The pharmacokinetics of Compound I were also studied with coadministration of the carbapenem, Biapenem. Compound I concentrations were determined using an LC-MS detection method.

O=C(O)C[C@@H]1CC[C@H](NC(=O)Cc2cccs2)B(O)O1 [Compound I]
Time-kill: effect of the addition of Compound I to Biapenem (KPC-producing strains): significant bactericidal synergism | CL or CL/F ([1]; 20 mg/kg IV): 1.7 ± 0.06 L/kg/h | AUC ([1]; 20 mg/kg IV): 12200 ± 430 ng·h/mL | Cmax ([1]; 20 mg/kg IV): 19800 ± 840 ng/mL | half-life ([1]; 20 mg/kg IV): 96 ± 10.2 min | AUC ([1]; 50 mg/kg IV): 28200 ± 2000 ng·h/mL | Cmax ([1]; 50 mg/kg IV): 45900 ± 2000 ng/mL | half-life ([1]; 50 mg/kg IV): 270 ± 80.4 min
